Assay results taken from patent EP4722207A1, “OXOISOINDOLINYL-SUBSTITUTED TETRAHYDROPYRIMIDINEDIONE DERIVATIVE AND USE THEREOF” (Gluetacs Therapeutics (Shanghai) Co., Ltd., priority 2023, dated 2024).

Tests used:
WEE1 = target: T1, WEE1 (Homo sapiens, UniProt P30291+Q96SW2); assay: Western-blot assay, substrate protein degradation in hPBMCs: WEE1; format: cell-based; details: for WEE1 substrate protein remaining %: compounds at 50 nM and 500 nM, 24 hours; for substrate protein remaining % WEE1: 24 hours of compound treatment, 50 nM and 500 nM
T1 construct: effects of the compounds of the present disclosure on the expression of target proteins in cells; endogenous in cells; host or cells: human PBMCs (hPBMCs)

IKZF1 = target: T2, IKZF1 (Homo sapiens, UniProt Q13422+Q96SW2); assay: Western-blot assay, substrate protein degradation in hPBMCs: IKZF1; format: cell-based; details: for IKZF1 substrate protein remaining %: compounds at 50 nM and 500 nM, 24 hours; for substrate protein remaining % IKZF1: 24 hours of compound treatment, 50 nM and 500 nM
T2 construct: effects of the compounds of the present disclosure on the expression of target proteins in cells; endogenous in cells; host or cells: human PBMCs (hPBMCs)

IKZF2 = target: T3, IKZF2 (Homo sapiens, UniProt Q96SW2+Q9UKS7); assay: Western-blot assay, substrate protein degradation in hPBMCs: IKZF2; format: cell-based; details: for IKZF2 substrate protein remaining %: compounds at 50 nM and 500 nM, 24 hours; for substrate protein remaining % IKZF2: 24 hours of compound treatment, 50 nM and 500 nM
T3 construct: effects of the compounds of the present disclosure on the expression of target proteins in cells; endogenous in cells; host or cells: human PBMCs (hPBMCs)

IKZF3 = target: T4, IKZF3 (Homo sapiens, UniProt Q96SW2+Q9UKT9); assay: Western-blot assay, substrate protein degradation in hPBMCs: IKZF3; format: cell-based; details: for IKZF3 substrate protein remaining %: compounds at 50 nM and 500 nM, 24 hours; for substrate protein remaining % IKZF3: 24 hours of compound treatment, 50 nM and 500 nM
T4 construct: effects of the compounds of the present disclosure on the expression of target proteins in cells; endogenous in cells; host or cells: human PBMCs (hPBMCs)

CK1α = target: T5, CK1α (Homo sapiens, UniProt P48729+Q96SW2); assay: Western-blot assay, substrate protein degradation in hPBMCs: CK1α; format: cell-based; details: for CK1α substrate protein remaining %: compounds at 50 nM and 500 nM, 24 hours; for substrate protein remaining % CK1α: 24 hours of compound treatment, 50 nM and 500 nM
T5 construct: effects of the compounds of the present disclosure on the expression of target proteins in cells; endogenous in cells; host or cells: human PBMCs (hPBMCs)

GSPT1 = target: T6, GSPT1 (Homo sapiens, UniProt P15170+Q96SW2); assay: Western-blot assay, substrate protein degradation in hPBMCs: GSPT1; format: cell-based; details: for GSPT1 substrate protein remaining %: compounds at 50 nM and 500 nM, 24 hours; for substrate protein remaining % GSPT1: 24 hours of compound treatment, 50 nM and 500 nM
T6 construct: effects of the compounds of the present disclosure on the expression of target proteins in cells; endogenous in cells; host or cells: human PBMCs (hPBMCs)

MV-4-11 = assay: Cell viability assay (CellTiter-Meiluncell Luminescent), tumor cell proliferation, MV-4-11; details: Homo sapiens, MV4-11, 96 h; for IC50: read-out: inhibitory activity (IC50, nM) against tumor cells proliferation, MV-4-11; for inhibition at 0.01 µM: read-out: Inhibition Rate at 10 nM (%); for inhibition at 0.5 µM: read-out: Inhibition Rate at 500 nM (%)
Description: The tumor cells used herein were cultured in a cell culture medium listed in table 2 at 37°C in an incubator with 5% CO2. Prior to experimentation, all cell lines used were correctly identified by STR profiling, and tested negative for mycoplasma contamination using a mycoplasma detection kit through routine screenings.
On the following day, the test compounds of the present disclosure were subjected to serial dilution. […] Subsequently, 0.5 µL of the test compound dilution was transferred into the 96-well plate containing the cells, with each well containing 100 µL of cell culture medium. […] Into the 96-well plate, the diluted test compounds and corresponding detection reagents were added, resulting in final test compound concentrations of 500 nM and 10 nM, respectively. The experimental procedure is described below using the diluted 2 µM test compound as an example.
After the cells were treated with the compounds of the present disclosure for a specified period, the cell viability assay reagent was added to the culture medium according to the kit's instructions to determine cell viability. […] All controls were treated using the same procedure as the compounds of the present disclosure. The growth inhibition curves for the compounds of the present disclosure were plotted using Prism GraphPad software, and the IC50 values were calculated therefrom.

T1 sequence (P30291 whole entry): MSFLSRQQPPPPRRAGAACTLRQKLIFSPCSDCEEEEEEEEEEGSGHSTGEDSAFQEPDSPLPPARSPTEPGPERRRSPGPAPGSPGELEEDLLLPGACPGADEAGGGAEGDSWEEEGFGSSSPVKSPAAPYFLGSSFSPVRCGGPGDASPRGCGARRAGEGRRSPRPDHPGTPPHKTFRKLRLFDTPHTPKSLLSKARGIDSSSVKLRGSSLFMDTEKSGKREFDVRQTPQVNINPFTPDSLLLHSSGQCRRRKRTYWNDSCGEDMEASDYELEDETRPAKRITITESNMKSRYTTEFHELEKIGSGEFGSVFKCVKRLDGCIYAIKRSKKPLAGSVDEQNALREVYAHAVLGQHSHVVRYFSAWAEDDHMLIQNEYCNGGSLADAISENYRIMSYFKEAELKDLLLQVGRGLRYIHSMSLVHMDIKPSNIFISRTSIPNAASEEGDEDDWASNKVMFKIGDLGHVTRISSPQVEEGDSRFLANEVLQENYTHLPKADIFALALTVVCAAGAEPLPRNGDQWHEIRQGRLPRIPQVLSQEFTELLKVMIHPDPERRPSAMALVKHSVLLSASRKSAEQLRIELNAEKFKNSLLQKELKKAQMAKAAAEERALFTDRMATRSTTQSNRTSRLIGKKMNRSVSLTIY
T1 sequence (Q96SW2 whole entry): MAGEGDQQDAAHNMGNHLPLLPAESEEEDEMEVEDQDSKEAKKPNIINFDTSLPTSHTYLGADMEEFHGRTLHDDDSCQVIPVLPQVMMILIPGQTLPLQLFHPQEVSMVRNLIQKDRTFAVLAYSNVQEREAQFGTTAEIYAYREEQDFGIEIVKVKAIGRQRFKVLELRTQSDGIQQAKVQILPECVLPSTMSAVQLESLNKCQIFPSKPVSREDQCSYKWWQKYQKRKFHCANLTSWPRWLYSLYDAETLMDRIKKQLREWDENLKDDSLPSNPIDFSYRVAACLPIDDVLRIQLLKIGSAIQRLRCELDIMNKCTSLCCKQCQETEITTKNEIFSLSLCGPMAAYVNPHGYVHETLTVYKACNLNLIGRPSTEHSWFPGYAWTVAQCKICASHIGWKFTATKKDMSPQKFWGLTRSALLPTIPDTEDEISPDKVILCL
T1 sequence (Q16531 whole entry partner): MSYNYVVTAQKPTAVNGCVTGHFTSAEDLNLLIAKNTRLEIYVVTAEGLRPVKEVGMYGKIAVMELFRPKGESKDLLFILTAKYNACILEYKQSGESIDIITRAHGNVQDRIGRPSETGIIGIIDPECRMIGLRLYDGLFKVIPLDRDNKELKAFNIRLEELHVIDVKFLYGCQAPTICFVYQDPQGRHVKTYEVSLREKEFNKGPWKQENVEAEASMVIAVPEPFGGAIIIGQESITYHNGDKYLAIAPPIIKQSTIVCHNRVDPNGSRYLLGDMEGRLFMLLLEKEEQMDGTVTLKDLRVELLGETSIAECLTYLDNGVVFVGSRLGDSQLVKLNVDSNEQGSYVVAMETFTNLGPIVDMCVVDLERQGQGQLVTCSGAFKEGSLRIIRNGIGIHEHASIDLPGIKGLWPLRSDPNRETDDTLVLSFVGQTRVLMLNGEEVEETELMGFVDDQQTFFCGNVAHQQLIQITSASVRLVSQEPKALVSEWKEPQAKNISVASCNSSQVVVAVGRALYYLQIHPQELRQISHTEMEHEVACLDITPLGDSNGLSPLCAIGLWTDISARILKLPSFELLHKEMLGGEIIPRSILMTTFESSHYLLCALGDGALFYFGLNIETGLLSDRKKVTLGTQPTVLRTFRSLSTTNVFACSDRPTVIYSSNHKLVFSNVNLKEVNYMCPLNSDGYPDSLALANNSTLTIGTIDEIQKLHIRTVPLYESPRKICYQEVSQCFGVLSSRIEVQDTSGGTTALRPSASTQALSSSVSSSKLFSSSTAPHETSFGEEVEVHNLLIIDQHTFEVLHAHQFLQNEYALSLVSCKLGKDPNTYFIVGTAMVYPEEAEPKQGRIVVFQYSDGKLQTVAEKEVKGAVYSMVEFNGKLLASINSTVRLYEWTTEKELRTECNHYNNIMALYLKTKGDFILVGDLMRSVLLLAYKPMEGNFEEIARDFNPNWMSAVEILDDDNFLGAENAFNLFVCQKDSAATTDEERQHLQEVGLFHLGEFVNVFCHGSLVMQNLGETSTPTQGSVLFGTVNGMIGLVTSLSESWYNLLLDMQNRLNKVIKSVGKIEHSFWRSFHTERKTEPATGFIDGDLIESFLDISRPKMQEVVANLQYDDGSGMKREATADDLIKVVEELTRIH
T6 sequence (P15170 whole entry): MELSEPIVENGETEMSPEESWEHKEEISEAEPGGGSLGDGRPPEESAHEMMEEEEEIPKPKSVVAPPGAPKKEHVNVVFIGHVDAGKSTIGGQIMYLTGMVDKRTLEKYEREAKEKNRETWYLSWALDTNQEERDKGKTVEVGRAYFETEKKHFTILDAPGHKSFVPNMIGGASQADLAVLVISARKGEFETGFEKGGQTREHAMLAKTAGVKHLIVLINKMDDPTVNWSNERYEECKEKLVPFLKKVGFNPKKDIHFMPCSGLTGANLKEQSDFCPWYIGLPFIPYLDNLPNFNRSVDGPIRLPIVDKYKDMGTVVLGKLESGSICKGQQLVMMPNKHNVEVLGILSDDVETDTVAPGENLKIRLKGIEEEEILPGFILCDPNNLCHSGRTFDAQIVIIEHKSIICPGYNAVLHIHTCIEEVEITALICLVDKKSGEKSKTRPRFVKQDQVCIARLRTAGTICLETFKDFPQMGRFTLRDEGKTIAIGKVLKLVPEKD
T6 sequence (Q96SW2 whole entry): as the sequence (Q96SW2 whole entry) above
T6 sequence (Q16531 whole entry partner): as the sequence (Q16531 whole entry partner) above
T4 sequence (Q9UKT9 whole entry): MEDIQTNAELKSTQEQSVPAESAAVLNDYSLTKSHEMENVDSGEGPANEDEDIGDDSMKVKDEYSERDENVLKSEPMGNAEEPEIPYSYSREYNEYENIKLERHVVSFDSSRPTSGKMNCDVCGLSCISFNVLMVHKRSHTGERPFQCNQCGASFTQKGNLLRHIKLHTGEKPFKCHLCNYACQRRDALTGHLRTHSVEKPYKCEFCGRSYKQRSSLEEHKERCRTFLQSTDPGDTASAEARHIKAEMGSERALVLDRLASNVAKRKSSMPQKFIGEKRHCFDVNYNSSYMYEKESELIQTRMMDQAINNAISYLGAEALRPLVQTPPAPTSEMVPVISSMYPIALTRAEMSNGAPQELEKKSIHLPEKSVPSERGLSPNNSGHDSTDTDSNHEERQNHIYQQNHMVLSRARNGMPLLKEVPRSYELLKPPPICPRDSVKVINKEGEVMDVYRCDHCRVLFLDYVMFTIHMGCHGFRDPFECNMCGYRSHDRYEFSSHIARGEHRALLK
T4 sequence (Q96SW2 whole entry): as the sequence (Q96SW2 whole entry) above
T4 sequence (Q16531 whole entry partner): as the sequence (Q16531 whole entry partner) above
T5 sequence (P48729 whole entry): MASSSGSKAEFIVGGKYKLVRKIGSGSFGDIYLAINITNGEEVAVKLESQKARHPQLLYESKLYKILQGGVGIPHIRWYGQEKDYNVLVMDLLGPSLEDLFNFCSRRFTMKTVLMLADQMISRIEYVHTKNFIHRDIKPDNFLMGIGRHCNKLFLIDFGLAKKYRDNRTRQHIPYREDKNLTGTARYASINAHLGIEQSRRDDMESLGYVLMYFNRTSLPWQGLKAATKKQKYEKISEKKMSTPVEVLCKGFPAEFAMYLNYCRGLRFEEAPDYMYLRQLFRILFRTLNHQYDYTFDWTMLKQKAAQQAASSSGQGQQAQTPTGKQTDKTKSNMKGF
T5 sequence (Q96SW2 whole entry): as the sequence (Q96SW2 whole entry) above
T5 sequence (Q16531 whole entry partner): as the sequence (Q16531 whole entry partner) above
T2 sequence (Q13422 whole entry): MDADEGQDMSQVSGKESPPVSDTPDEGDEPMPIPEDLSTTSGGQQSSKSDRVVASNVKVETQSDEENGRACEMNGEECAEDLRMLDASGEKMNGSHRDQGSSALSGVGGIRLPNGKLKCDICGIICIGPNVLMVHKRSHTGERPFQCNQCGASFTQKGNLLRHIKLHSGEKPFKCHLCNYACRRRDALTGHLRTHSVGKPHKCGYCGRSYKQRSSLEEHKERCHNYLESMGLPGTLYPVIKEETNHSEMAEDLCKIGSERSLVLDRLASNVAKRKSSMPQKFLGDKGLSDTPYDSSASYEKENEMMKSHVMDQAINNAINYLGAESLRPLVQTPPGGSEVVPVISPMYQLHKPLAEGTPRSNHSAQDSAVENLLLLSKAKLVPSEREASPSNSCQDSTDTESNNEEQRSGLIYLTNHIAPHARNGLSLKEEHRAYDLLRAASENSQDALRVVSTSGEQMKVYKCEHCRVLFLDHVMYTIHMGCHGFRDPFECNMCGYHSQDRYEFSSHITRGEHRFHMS
T2 sequence (Q96SW2 whole entry): as the sequence (Q96SW2 whole entry) above
T2 sequence (Q16531 whole entry partner): as the sequence (Q16531 whole entry partner) above

| Structure (SMILES) | WEE1 substrate protein remaining % (WEE1) | IKZF1 substrate protein remaining % (IKZF1) | IKZF2 substrate protein remaining % (IKZF2) | IKZF3 substrate protein remaining % (IKZF3) | CK1α substrate protein remaining % (CK1α) | GSPT1 substrate protein remaining % (GSPT1) | IC50 (MV-4-11) | substrate protein remaining % WEE1 (WEE1) | substrate protein remaining % IKZF1 (IKZF1) | substrate protein remaining % IKZF2 (IKZF2) | substrate protein remaining % IKZF3 (IKZF3) | substrate protein remaining % CK1α (CK1α) | substrate protein remaining % GSPT1 (GSPT1) | inhibition at 0.01 µM (MV-4-11) | inhibition at 0.5 µM (MV-4-11) |
| --- | --- | --- | --- | --- | --- | --- | --- | --- | --- | --- | --- | --- | --- | --- | --- |
| O=C1CCN(N2Cc3cc(CN4CCN(c5ccc(F)cc5)CC4)ccc3C2=O)C(=O)N1 [GT-06702, 1-(5-((4-(4-fluorophenyl)piperazin-1-yl)methyl)-1-oxoisoindolin-2-yl)dihydropyrimidine-2,4(1H,3H)-dione] | B ("B" is defined as 80%< substrate protein remaining %≤ 100%) | B ("B" is defined as 80%< substrate protein remaining %≤ 100%) | B ("B" is defined as 80%< substrate protein remaining %≤ 100%) | B ("B" is defined as 80%< substrate protein remaining %≤ 100%) | A ("A" is defined as 0% ≤ substrate protein remaining % ≤ 80%) | A ("A" is defined as 0% ≤ substrate protein remaining % ≤ 80%) | 500 to 1000 nM |  |  |  |  |  |  |  |  |
| O=C1CCN(N2Cc3cc(CN4CCN(c5ccccc5Cl)CC4)ccc3C2=O)C(=O)N1 [GT-06703, 1-(5-((4-(2-chlorophenyl)piperazin-1-yl)methyl)-1-oxoisoindolin-2-yl)dihydropyrimidine-2,4(1H,3H)-dione] | B ("B" is defined as 80%< substrate protein remaining %≤ 100%) | B ("B" is defined as 80%< substrate protein remaining %≤ 100%) | B ("B" is defined as 80%< substrate protein remaining %≤ 100%) | B ("B" is defined as 80%< substrate protein remaining %≤ 100%) | A ("A" is defined as 0% ≤ substrate protein remaining % ≤ 80%) | A ("A" is defined as 0% ≤ substrate protein remaining % ≤ 80%) | 500 to 1000 nM |  |  |  |  |  |  |  |  |
| O=C1CCN(N2Cc3cc(CN4CCN(c5ccc(Cl)cc5)CC4)ccc3C2=O)C(=O)N1 [GT-06765, 1-(5-((4-(4-chlorophenyl)piperazin-1-yl)methyl)-1-oxoisoindolin-2-yl)dihydropyrimidine-2,4(1H,3H)-dione] | B ("B" is defined as 80%< substrate protein remaining %≤ 100%) | B ("B" is defined as 80%< substrate protein remaining %≤ 100%) | B ("B" is defined as 80%< substrate protein remaining %≤ 100%) | B ("B" is defined as 80%< substrate protein remaining %≤ 100%) | A ("A" is defined as 0% ≤ substrate protein remaining % ≤ 80%) | B ("B" is defined as 80%< substrate protein remaining %≤ 100%) | 500 to 1000 nM |  |  |  |  |  |  |  |  |
| O=C1CCN(N2Cc3cc(CN4CCN(c5ccccc5Br)CC4)ccc3C2=O)C(=O)N1 [GT-06766, 1-(5-((4-(2-bromophenyl)piperazin-1-yl)methyl)-1-oxoisoindolin-2-yl)dihydropyrimidine-2,4(1H,3H)-dione] | A ("A" is defined as 0% ≤ substrate protein remaining % ≤ 80%) | A ("A" is defined as 0% ≤ substrate protein remaining % ≤ 80%) | A ("A" is defined as 0% ≤ substrate protein remaining % ≤ 80%) | A ("A" is defined as 0% ≤ substrate protein remaining % ≤ 80%) | A ("A" is defined as 0% ≤ substrate protein remaining % ≤ 80%) | A ("A" is defined as 0% ≤ substrate protein remaining % ≤ 80%) | 500 to 1000 nM |  |  |  |  |  |  |  |  |
| O=C1CCN(N2Cc3cc(CN4CCN(c5cc(Cl)ccc5Cl)CC4)ccc3C2=O)C(=O)N1 [GT-06773, 1-(5-((4-(2,5-dichlorophenyl)piperazin-1-yl)methyl)-1-oxoisoindolin-2-yl)dihydropyrimidine-2,4(1H,3H)-dione] | A ("A" is defined as 0% ≤ substrate protein remaining % ≤ 80%) | B ("B" is defined as 80%< substrate protein remaining %≤ 100%) | A ("A" is defined as 0% ≤ substrate protein remaining % ≤ 80%) | A ("A" is defined as 0% ≤ substrate protein remaining % ≤ 80%) | A ("A" is defined as 0% ≤ substrate protein remaining % ≤ 80%) | A ("A" is defined as 0% ≤ substrate protein remaining % ≤ 80%) | 100 to 300 nM |  |  |  |  |  |  |  |  |
| O=C1CCN(N2Cc3cc(CN4CCN(c5cccc(F)c5F)CC4)ccc3C2=O)C(=O)N1 [GT-06777, 1-(5-((4-(2,3-difluorophenyl)piperazin-1-yl)methyl)-1-oxoisoindolin-2-yl)dihydropyrimidine-2,4(1H,3H)-dione] | A ("A" is defined as 0% ≤ substrate protein remaining % ≤ 80%) | B ("B" is defined as 80%< substrate protein remaining %≤ 100%) | A ("A" is defined as 0% ≤ substrate protein remaining % ≤ 80%) | B ("B" is defined as 80%< substrate protein remaining %≤ 100%) | A ("A" is defined as 0% ≤ substrate protein remaining % ≤ 80%) | A ("A" is defined as 0% ≤ substrate protein remaining % ≤ 80%) | 300 to 500 nM |  |  |  |  |  |  |  |  |
| O=C1CCN(N2Cc3cc(CN4CCC(c5ccccc5)CC4)ccc3C2=O)C(=O)N1 [GT-06884, 1-(1-oxo-5-((4-phenylpiperidin-1-yl)methyl)isoindolin-2-yl)dihydropyrimidine-2,4(1H,3H)-dione] | B ("B" is defined as 80%< substrate protein remaining %≤ 100%) | B ("B" is defined as 80%< substrate protein remaining %≤ 100%) | B ("B" is defined as 80%< substrate protein remaining %≤ 100%) | B ("B" is defined as 80%< substrate protein remaining %≤ 100%) | B ("B" is defined as 80%< substrate protein remaining %≤ 100%) | A ("A" is defined as 0% ≤ substrate protein remaining % ≤ 80%) | 500 to 1000 nM |  |  |  |  |  |  |  |  |
| O=C1CCN(N2Cc3cc(CN4CCC(c5cccc(Br)c5)CC4)ccc3C2=O)C(=O)N1 [GT-06885, 1-(5-((4-(3-bromophenyl)piperidin-1-yl)methyl)-1-oxoisoindolin-2-yl)dihydropyrimidine-2,4(1H,3H)-dione] | B ("B" is defined as 80%< substrate protein remaining %≤ 100%) | A ("A" is defined as 0% ≤ substrate protein remaining % ≤ 80%) | A ("A" is defined as 0% ≤ substrate protein remaining % ≤ 80%) | B ("B" is defined as 80%< substrate protein remaining %≤ 100%) | B ("B" is defined as 80%< substrate protein remaining %≤ 100%) | A ("A" is defined as 0% ≤ substrate protein remaining % ≤ 80%) | 100 to 300 nM |  |  |  |  |  |  |  |  |
| O=C1CCN(N2Cc3cc(CN4CCC(c5cccc(C(F)(F)F)c5)CC4)ccc3C2=O)C(=O)N1 [GT-06892, 1-(1-oxo-5-((4-(3-(trifluoromethyl)phenyl)piperidin-1-yl)methyl)isoindolin-2-yl)dihydropyrimidine-2,4(1H,3H)-dione] | B ("B" is defined as 80%< substrate protein remaining %≤ 100%) | A ("A" is defined as 0% ≤ substrate protein remaining % ≤ 80%) | A ("A" is defined as 0% ≤ substrate protein remaining % ≤ 80%) | B ("B" is defined as 80%< substrate protein remaining %≤ 100%) | B ("B" is defined as 80%< substrate protein remaining %≤ 100%) | A ("A" is defined as 0% ≤ substrate protein remaining % ≤ 80%) | 500 to 1000 nM |  |  |  |  |  |  |  |  |
| O=C1CCN(N2Cc3cc(CN4CCN(c5ncnc6sc(-c7ccccc7)cc56)CC4)ccc3C2=O)C(=O)N1 [GT-08064, 1-(1-oxo-5-((4-(6-phenylthieno[2,3-d]pyrimidin-4-yl)piperazin-1-yl)methyl)isoindolin-2-yl)dihydropyrimidine-2,4(1H,3H)-dione] |  |  |  |  |  |  |  | B (80%< substrate protein remaining %≤ 100%) | B (80%< substrate protein remaining %≤ 100%) | A (0% ≤ substrate protein remaining % ≤ 80%) | B (80%< substrate protein remaining %≤ 100%) | B (80%< substrate protein remaining %≤ 100%) | B (80%< substrate protein remaining %≤ 100%) | 25 to 30% | 10 to 18% |
| O=C1CCN(N2Cc3cc(CN4CCN(c5ncnc6sc7c(c56)CCCC7)CC4)ccc3C2=O)C(=O)N1 [GT-08077, 1-(1-oxo-5-((4-(5,6,7,8-tetrahydrobenzo[4,5]thieno[2,3-d]pyrimidin-4-yl)piperazin-1-yl)methyl)isoindolin-2-yl)dihydropyrimidine-2,4(1H,3H)-dione] |  |  |  |  |  |  |  | B (80%< substrate protein remaining %≤ 100%) | B (80%< substrate protein remaining %≤ 100%) | B (80%< substrate protein remaining %≤ 100%) | B (80%< substrate protein remaining %≤ 100%) | A (0% ≤ substrate protein remaining % ≤ 80%) | A (0% ≤ substrate protein remaining % ≤ 80%) | 25 to 30% | 25 to 30% |
